Data from patent publication US5242938A, “Derivatives of virginiamycin M1” (Merck & Co., Inc., priority 1992, dated 1993).
≈ marks a conversion by molar mass, not a printed value. Where two headings read alike, the source gives them in different places.

Columns and labels:
Bacillus sp. (Mb 633) = assay: Agar diffusion disc assay, Baci 633; type: cell-based; details: Bacillus, 18 h
Summary of the method: (§1)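 Paper-disc agar diffusion per Barry. Methanol stock 1 mg/ml, serial dilutions, 20 μl per 6 mm disc, air dried. Seeded plates ~10^6 cfu, ~18 h, 25° C. Zones to nearest mm; n=3, mean.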

[1] = molecular target: T1, CCK-B (guinea pig cortex) (Cavia porcellus, UniProt H0VZC5); assay: [3H]L-365,260 CCK-B selective antagonist ligand binding, brain membranes; details: for IC50: read-out: CCK binding inhibition - IC50, [3H]L-365,260
T1 construct: guinea pig cortical preparations; from tissue; host or cells: guinea pig brain cortex membranes
T1 sequence (H0VZC5 1-426): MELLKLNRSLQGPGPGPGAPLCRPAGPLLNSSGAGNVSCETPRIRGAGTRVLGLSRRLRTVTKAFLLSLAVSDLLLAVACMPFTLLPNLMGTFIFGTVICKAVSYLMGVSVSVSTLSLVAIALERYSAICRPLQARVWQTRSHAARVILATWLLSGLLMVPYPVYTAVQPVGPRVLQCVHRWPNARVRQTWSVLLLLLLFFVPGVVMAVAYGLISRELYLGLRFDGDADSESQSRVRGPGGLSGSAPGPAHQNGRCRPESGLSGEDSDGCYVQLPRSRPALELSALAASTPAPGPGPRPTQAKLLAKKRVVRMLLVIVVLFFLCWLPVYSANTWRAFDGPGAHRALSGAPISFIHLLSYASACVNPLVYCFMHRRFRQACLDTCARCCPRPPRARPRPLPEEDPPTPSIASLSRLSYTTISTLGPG
Protocol: (§2) The resulting supernatant was re-spun at 20,000×g for 20 minutes. […] Incubations were for 40 minutes at 4° C. and were terminated by filtration and washing with ice cold 100 mM saline. […] Incubations were for 30 minutes at room temperature and were terminated by filtration over GF/C filters and washing with 100 mM NaCl.

CCK-A (rat pancreas) [2] = molecular target: T2, CCK-A (rat pancreas) (Rattus norvegicus, UniProt P30551); assay: [125I]BHCCK-8 radioligand binding, rat pancreatic preparation; details: read-out: CCK binding inhibition - IC50, [125I]BHCCK
T2 construct: from tissue; host or cells: rat pancreas
T2 sequence (P30551 1-444): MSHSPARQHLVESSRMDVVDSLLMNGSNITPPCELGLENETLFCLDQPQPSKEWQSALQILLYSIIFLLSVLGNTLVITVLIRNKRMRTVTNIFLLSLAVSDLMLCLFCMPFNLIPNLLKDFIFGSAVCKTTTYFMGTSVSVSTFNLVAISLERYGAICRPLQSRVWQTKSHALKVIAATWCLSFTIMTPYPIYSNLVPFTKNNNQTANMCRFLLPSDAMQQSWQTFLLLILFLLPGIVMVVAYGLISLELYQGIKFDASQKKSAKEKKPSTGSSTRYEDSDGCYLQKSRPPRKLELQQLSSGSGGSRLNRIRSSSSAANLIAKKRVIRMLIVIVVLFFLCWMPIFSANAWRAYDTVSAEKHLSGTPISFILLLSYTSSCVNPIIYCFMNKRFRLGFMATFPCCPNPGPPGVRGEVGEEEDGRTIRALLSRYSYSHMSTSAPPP
Protocol: as §2

[3] = molecular target: T1, CCK-B (guinea pig cortex); assay: [125I]BHCCK-8 radioligand binding, guinea pig cortical preparation; details: read-out: CCK binding inhibition - IC50, [125I]BHCCK
Protocol: as §2

[4] = tested on: Staphylococcus aureus (Mb 108, ATCC 6538P); assay: Agar diffusion disc assay, Sta 108; type: cell-based; details: Staphylococcus aureus, ATCC6538P, 18 h; @ 20 g/disc; read-out: Inhibition zone diameter, Sta 108
Summary of the method: as §1

[5] = tested on: Streptococcus faecium (Mb 2820); assay: Agar diffusion disc assay, Str 2820; type: cell-based; details: Enterococcus faecium, 18 h; @ 20 g/disc; read-out: Inhibition zone diameter, Str 2820
Summary of the method: as §1

[6] = tested on: Corynebacterium pseudodiphtheriticum (Mb 261, ATCC 9742); assay: Agar diffusion disc assay, Cory 261; type: cell-based; details: Corynebacterium pseudodiphtheriticum, ATCC9742, 18 h; @ 20 g/disc; read-out: Inhibition zone diameter, Cory 261
Summary of the method: as §1

[7] = tested on: Staphylococcus aureus (Mb 2983); assay: Agar diffusion disc assay, Sta 2983; type: cell-based; details: Staphylococcus aureus, 18 h; @ 20 g/disc; read-out: Inhibition zone diameter, Sta 2983
Summary of the method: as §1

[8] = tested on: En terobacter aergenes (Mb 835); assay: Agar diffusion disc assay, Ent 835; type: cell-based; details: 18 h; @ 20 g/disc; read-out: Inhibition zone diameter, Ent 835
Summary of the method: as §1

[9] = tested on: Salmonella gallinarum (Mb 1287); assay: Agar diffusion disc assay, Salm 1287; type: cell-based; details: Salmonella enterica, GALLINARUM, 18 h; @ 20 g/disc; read-out: Inhibition zone diameter, Salm 1287
Summary of the method: as §1

[10] = tested on: Streptococcus agalactiae (Mb 2875); assay: Agar diffusion disc assay, Str 2875; type: cell-based; details: Streptococcus agalactiae, 18 h; @ 20 g/disc; read-out: Inhibition zone diameter, Str 2875
Summary of the method: as §1

[11] = tested on: Escherichia coli (Mb 1418); assay: Agar diffusion disc assay, Coli 1418; type: cell-based; details: Escherichia coli, 18 h; @ 20 g/disc; read-out: Inhibition zone diameter, Coli 1418
Summary of the method: as §1

[12] = tested on: Pseudomonas stutzeri (Mb 1231, ATCC 11607); assay: Agar diffusion disc assay, Pseu 1231; type: cell-based; details: Stutzerimonas stutzeri, ATCC11607, 18 h; @ 20 g/disc; read-out: Inhibition zone diameter, Pseu 1231
Summary of the method: as §1

[13] = tested on: Bacillus subtilis (Mb 964, ATCC 6633); assay: Agar diffusion disc assay, Subt 964; type: cell-based; details: Bacillus subtilis, ATCC6633, 18 h; @ 20 g/disc; read-out: Inhibition zone diameter, Subt 964
Summary of the method: as §1

[14] = tested on: Micrococcus luteus (Mb 1101, ATCC 9341); assay: Agar diffusion disc assay, Micr 1101; type: cell-based; details: Micrococcus luteus; for MIC: read-out: Agar Diffusion MIC versus Micrococcus luteus
Summary of the method: as §1

CCK-A (rat pancreas) [15] = molecular target: T2, CCK-A (rat pancreas); assay: [3H]L-364,718 CCK-A selective antagonist ligand binding, pancreas; details: for A.R. = agonist ratio: [3H]L-364,718 / [125I]BHCCK; for IC50: read-out: CCK binding inhibition - IC50, [3H]L-364,718
Protocol: as §2

gastric acid secretion = details: cited from earlier work
[16] = ATCC9341, 18 h, @ 20 g/disc, read-out: Inhibition zone diameter, Micr 1101

Compound | A.R. = agonist ratio = IC50([3H]L365,260)/IC50([125I]CCK) [1] | IC50 [1] | IC50 (CCK-A (rat pancreas) [2]) | IC50 [3] | zone of inhibition at 20 µg/disc [4] | zone of inhibition at 20 µg/disc [5] | zone of inhibition at 20 µg/disc [6] | zone of inhibition at 20 µg/disc [7] | zone of inhibition at 20 µg/disc [8] | zone of inhibition at 20 µg/disc [9] | zone of inhibition at 20 µg/disc [10] | zone of inhibition at 20 µg/disc [11] | zone of inhibition at 20 µg/disc [12] | zone of inhibition at 20 µg/disc [13] | zone of inhibition at 20 µg/disc [14, 16] | MIC ([14]; ATCC9341, 18 h) | A.R. = agonist ratio (CCK-A (rat pancreas) [15]) | IC50 (CCK-A (rat pancreas) [15]) | other results
CC1=C\[C@@H](OC(=O)Nc2ccccc2)CC(=O)Cc2nc(co2)C(=O)N2CCC=C2C(=O)O[C@H](C(C)C)[C@H](C)/C=C/C(=O)NC\C=C\1 [Example 11] | 5.3 | 1.6 µM | 2.3 µM | 0.3 µM | 0 mm | 0 mm | 0 mm | 0 mm | 0 mm | 0 mm | 0 mm | 0 mm | 0 mm | 0 mm | 14 mm | 0.05 µM (≈ 0.0322 µg/mL) | 1.7 | 4 µM | zone of inhibition at 20 µg/disc (Bacillus sp. (Mb 633); @ 20 g/disc, read-out: Inhibition zone diameter, Baci 633): 0 mm; zone of inhibition at 1.25 µg/disc ([14]; ATCC9341, 1.25 μg/disc, 25° C., ~18 hours, read-out: Mean of triplicate zone size versus Micrococcus luteus): 7 mm; zone of inhibition at 2.5 µg/disc ([14]; ATCC9341, 2.50 μg/disc, 25° C., ~18 hours, read-out: Mean of triplicate zone size versus Micrococcus luteus): 10 mm; zone of inhibition at 5 µg/disc ([14]; ATCC9341, 5.00 μg/disc, 25° C., ~18 hours, read-out: Mean of triplicate zone size versus Micrococcus luteus): 11 mm; zone of inhibition at 10 µg/disc ([14]; ATCC9341, 10.0 μg/disc, 25° C., ~18 hours, read-out: Mean of triplicate zone size versus Micrococcus luteus): 12 mm; zone of inhibition at 20 µg/disc ([14]; ATCC9341, 20.0 μg/disc, 25° C., ~18 hours, read-out: Mean of triplicate zone size versus Micrococcus luteus): 12 mm
CC1=C\[C@@H](OC(=O)Nc2cccc(C)c2)CC(=O)Cc2nc(co2)C(=O)N2CCC=C2C(=O)O[C@H](C(C)C)[C@H](C)/C=C/C(=O)NC\C=C\1 [Example 12] | 7.5 | 3 µM | 1.9 µM | 0.4 µM | 0 mm | 0 mm | 0 mm | 0 mm | 0 mm | 0 mm | 0 mm | 0 mm | 0 mm | 0 mm | 9 mm | > 243 µM | 4.2 | 8 µM | zone of inhibition at 20 µg/disc (Bacillus sp. (Mb 633); read-out: Inhibition zone diameter, Baci 633, @ 20 g/disc): 0 mm
Gastrin-17 | – | – | – | – | – | – | – | – | – | – | – | – | – | – | – | – | – | – | potency for stimulating gastric acid secretion relative to Gastrin-13 (gastric acid secretion): 2.5 times; potency for stimulating gastric acid secretion relative to Gastrin-34 (gastric acid secretion): 5 times
